# Test results published in ChEMBL document CHEMBL3351303, “Discovery of Imigliptin, a Novel Selective DPP-4 Inhibitor for the Treatment of Type 2 Diabetes” (ACS Med Chem Lett, 2014).
# Tests used:
# Dipeptidyl peptidase 9 = Dipeptidyl peptidase 9 (Homo sapiens, UniProt Q86TI2); assay: Inhibition of human recombinant DPP9 pre-incubated with compound for 15 mins before substrate addition by luminescence assay
# Dipeptidyl peptidase 8 = Dipeptidyl peptidase 8 (Homo sapiens, UniProt Q6V1X1); assay: Inhibition of human recombinant DPP8 pre-incubated with compound for 15 mins before substrate addition by luminescence assay
# Sequence of Dipeptidyl peptidase 8 (Q6V1X1 whole entry): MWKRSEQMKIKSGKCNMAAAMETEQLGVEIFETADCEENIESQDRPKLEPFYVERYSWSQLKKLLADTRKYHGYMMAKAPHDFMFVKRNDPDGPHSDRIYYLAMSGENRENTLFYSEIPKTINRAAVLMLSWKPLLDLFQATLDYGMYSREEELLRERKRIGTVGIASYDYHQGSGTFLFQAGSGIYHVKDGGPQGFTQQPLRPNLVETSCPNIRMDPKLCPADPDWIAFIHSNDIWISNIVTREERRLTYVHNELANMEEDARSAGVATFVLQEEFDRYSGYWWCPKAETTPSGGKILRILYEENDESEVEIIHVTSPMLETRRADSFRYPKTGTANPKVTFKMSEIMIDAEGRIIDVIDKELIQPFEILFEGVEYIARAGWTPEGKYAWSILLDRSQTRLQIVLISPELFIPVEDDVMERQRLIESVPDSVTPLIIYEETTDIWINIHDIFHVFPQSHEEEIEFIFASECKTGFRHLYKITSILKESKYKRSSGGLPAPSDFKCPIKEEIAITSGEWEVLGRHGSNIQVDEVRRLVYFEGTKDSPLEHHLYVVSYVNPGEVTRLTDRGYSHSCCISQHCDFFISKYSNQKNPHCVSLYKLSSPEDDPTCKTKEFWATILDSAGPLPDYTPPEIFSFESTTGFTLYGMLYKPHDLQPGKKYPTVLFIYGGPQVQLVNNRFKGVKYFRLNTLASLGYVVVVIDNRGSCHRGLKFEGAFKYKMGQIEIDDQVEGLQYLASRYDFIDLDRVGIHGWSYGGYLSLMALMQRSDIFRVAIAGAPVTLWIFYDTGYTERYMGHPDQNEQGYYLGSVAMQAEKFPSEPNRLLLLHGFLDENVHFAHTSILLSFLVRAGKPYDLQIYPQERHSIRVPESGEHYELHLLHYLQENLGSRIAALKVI
# [1] = Cmax in monkey at 10 mg/kg, po; format: ADME, organism-based, Macaca mulatta; set-up: dose 10 mg/kg, route oral; conditions: rhesus monkey, in vivo
# [2] = Solubility in pH 6.8 solution; format: physicochemical
# Mus musculus [3] = assay: Antidiabetic activity in C57BL/6 mouse assessed as plasma glucose level at 1 mg/kg, po administered as single dose 30 mins before orally glucose challenge by oral glucose tolerance test (reference value: 15.6 mM); format: functional
# [4] = Cmax in dog at 5 mg/kg, po; format: ADME, organism-based, Canis lupus familiaris; set-up: dose 5 mg/kg, route oral; conditions: in vivo
# [5] = Solubility in pH 4.5 solution; format: physicochemical
# [6] = Clearance in monkey at 5 mg/kg, iv; format: ADME, organism-based, Macaca mulatta; set-up: dose 5 mg/kg, route intravenous; conditions: rhesus monkey, in vivo
# [7] = Solubility in pH 1.2 solution; format: physicochemical
# [8] = Volume of distribution at steady state in dog at 6.25 mg/kg, iv; format: ADME, organism-based, Canis lupus familiaris; set-up: dose 6.25 mg/kg, route intravenous; conditions: in vivo, read-out: Vdss
# [9] = Oral bioavailability in dog at 5 mg/kg; format: ADME, organism-based, Canis lupus familiaris; conditions: in vivo
# [10] = Plasma concentration in C57BL/6 mouse at 1 mg/kg, po administered as single dose 30 mins before orally glucose challenge and measured 20 mins post oral glucose challenge; format: ADME, organism-based; set-up: dose 1 mg/kg, route oral
# [11] = Half life in monkey at 5 mg/kg, iv; format: ADME, organism-based, Macaca mulatta; set-up: dose 5 mg/kg, route intravenous; conditions: rhesus monkey, in vivo
# [12] = AUClast in dog at 5 mg/kg, po; format: ADME, organism-based, Canis lupus familiaris; set-up: time 0 - last, dose 5 mg/kg, route oral; conditions: plasma
# [13] = Plasma concentration in C57BL/6 mouse at 3 mg/kg, po administered as single dose 30 mins before orally glucose challenge and measured 20 mins post oral glucose challenge; format: ADME, organism-based; set-up: dose 3 mg/kg, route oral
# Mus musculus [14] = assay: Antidiabetic activity in C57BL/6 mouse assessed as plasma glucose level at 0.1 mg/kg, po administered as single dose 30 mins before orally glucose challenge by oral glucose tolerance test (reference value: 15.6 mM); format: functional
# Mus musculus [15] = assay: Increase in plasma GLP1 level in C57BL/6 mouse at 0.3 mg/kg, po administered as single dose 30 mins before orally glucose challenge and measured 20 mins post oral glucose challenge by ELISA method (reference value: 4 pM); format: functional
# Cytochrome P450 2C19 = Cytochrome P450 2C19 (Homo sapiens, UniProt P33261); assay: Inhibition of CYP2C19 (unknown origin); format: ADME
# Sequence of Cytochrome P450 2C19 (P33261 whole entry): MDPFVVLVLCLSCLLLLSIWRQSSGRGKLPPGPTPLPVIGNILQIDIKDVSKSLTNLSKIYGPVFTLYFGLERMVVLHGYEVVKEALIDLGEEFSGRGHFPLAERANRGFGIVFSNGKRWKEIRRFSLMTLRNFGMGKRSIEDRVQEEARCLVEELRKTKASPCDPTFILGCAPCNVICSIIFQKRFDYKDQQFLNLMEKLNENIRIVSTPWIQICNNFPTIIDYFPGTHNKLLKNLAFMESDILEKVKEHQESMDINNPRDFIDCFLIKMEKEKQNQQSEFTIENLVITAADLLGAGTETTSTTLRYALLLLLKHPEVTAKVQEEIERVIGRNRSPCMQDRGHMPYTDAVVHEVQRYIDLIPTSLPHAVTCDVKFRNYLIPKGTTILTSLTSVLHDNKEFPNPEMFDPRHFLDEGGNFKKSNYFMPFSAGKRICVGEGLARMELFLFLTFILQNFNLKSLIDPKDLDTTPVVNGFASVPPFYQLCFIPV
# Canis familiaris = assay: Cardiotoxicity in conscious dog assessed as induction of QT prolongation up to 20 mg/kg; format: toxicity, organism-based, Canis lupus familiaris; set-up: dose 20 mg/kg; conditions: in vivo
# [16] = Clearance in dog at 6.25 mg/kg, iv; format: ADME, organism-based, Canis lupus familiaris; set-up: dose 6.25 mg/kg, route intravenous; conditions: in vivo
# [17] = Volume of distribution at steady state in monkey at 5 mg/kg, iv; format: ADME, organism-based, Macaca mulatta; set-up: dose 5 mg/kg, route intravenous; conditions: rhesus monkey, in vivo, read-out: Vdss
# Cytochrome P450 2C9 = Cytochrome P450 2C9 (Homo sapiens, UniProt P11712); assay: Inhibition of CYP2C9 (unknown origin); format: ADME
# Sequence of Cytochrome P450 2C9 (P11712 whole entry): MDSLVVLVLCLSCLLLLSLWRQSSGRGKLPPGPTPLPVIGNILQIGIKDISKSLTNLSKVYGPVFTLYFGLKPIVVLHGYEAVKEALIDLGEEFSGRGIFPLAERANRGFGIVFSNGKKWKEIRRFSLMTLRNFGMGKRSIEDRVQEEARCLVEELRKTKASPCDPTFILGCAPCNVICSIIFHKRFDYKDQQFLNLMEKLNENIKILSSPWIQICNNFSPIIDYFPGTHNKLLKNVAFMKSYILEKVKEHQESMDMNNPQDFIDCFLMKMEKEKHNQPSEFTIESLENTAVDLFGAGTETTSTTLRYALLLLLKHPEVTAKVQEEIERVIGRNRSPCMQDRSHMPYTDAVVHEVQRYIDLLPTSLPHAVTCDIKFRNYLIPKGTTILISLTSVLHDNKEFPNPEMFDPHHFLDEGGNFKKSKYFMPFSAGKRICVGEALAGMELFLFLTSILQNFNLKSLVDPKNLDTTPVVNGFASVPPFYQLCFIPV
# Cytochrome P450 3A4 = Cytochrome P450 3A4 (Homo sapiens, UniProt P08684); assay: Inhibition of CYP3A4 (unknown origin); format: ADME
# Sequence of Cytochrome P450 3A4 (P08684 whole entry): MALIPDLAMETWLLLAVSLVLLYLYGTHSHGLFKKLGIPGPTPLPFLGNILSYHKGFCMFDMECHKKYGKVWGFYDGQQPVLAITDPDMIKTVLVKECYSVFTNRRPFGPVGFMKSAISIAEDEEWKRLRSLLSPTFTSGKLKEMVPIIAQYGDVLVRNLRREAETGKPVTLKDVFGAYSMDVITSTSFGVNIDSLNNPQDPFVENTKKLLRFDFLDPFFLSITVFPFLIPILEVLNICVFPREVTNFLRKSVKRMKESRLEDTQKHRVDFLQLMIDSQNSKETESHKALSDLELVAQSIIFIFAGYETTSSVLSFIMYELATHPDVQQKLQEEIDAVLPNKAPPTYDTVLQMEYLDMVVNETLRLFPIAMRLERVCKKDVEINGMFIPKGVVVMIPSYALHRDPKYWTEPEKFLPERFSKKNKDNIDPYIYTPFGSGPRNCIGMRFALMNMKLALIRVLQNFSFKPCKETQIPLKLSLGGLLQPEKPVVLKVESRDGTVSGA
# [18] = Half life in dog at 6.25 mg/kg, iv; format: ADME, organism-based, Canis lupus familiaris; set-up: dose 6.25 mg/kg, route intravenous; conditions: in vivo
# [19] = Protein binding in rat; format: ADME, organism-based; conditions: in vivo, read-out: PB (converted)
# Mus musculus [20] = assay: Antidiabetic activity in C57BL/6 mouse assessed as plasma glucose level at 0.3 mg/kg, po administered as single dose 30 mins before orally glucose challenge by oral glucose tolerance test (reference value: 15.6 mM); format: functional
# [21] = Plasma concentration in C57BL/6 mouse at 0.3 mg/kg, po administered as single dose 30 mins before orally glucose challenge and measured 20 mins post oral glucose challenge; format: ADME, organism-based; set-up: dose 0.3 mg/kg, route oral
# Mus musculus [22] = assay: Increase in plasma GLP1 level in C57BL/6 mouse at 0.1 mg/kg, po administered as single dose 30 mins before orally glucose challenge and measured 20 mins post oral glucose challenge by ELISA method (reference value: 4 pM); format: functional
# Mus musculus [23] = species on record: Mus musculus; assay: animal or person; conditions: C57BL/6, Plasma, po, read-out: INH
# Mus musculus [24] = assay: Increase in plasma GLP1 level in C57BL/6 mouse at 1 mg/kg, po administered as single dose 30 mins before orally glucose challenge and measured 20 mins post oral glucose challenge by ELISA method (reference value: 4 pM); format: functional
# Mus musculus [25] = assay: Inhibition of DPP4 activity in C57BL/6 mouse at 0.1 mg/kg, po administered as single dose 30 mins before orally glucose challenge and measured 20 mins post oral glucose challenge by luminescence assay; format: functional
# [26] = Protein binding in human; format: ADME, organism-based; conditions: in vivo, read-out: PB (converted)
# Mus musculus [27] = assay: Inhibition of DPP4 activity in C57BL/6 mouse at 3 mg/kg, po administered as single dose 30 mins before orally glucose challenge and measured 20 mins post oral glucose challenge by luminescence assay; conditions: C57BL/6, po, read-out: INH
# Mus musculus [28] = assay: Toxicity in db/db mouse assessed as effect on body weight administered with food formulated compound for 28 days; format: organism-based; conditions: in vivo, po, 672 h
# Mus musculus [29] = assay: Inhibition of DPP4 activity in C57BL/6 mouse at 0.3 mg/kg, po administered as single dose 30 mins before orally glucose challenge and measured 20 mins post oral glucose challenge by luminescence assay; format: functional
# [30] = AUClast in rat at 10 mg/kg, po; format: ADME, organism-based; set-up: time 0 - last, dose 10 mg/kg, route oral; conditions: plasma
# Mus musculus [31] = assay: Antidiabetic activity in C57BL/6 mouse assessed as reduction in plasma glucose AUC (0 to 120 mins) at 0.1 mg/kg, po administered as single dose 30 mins before orally glucose challenge by oral glucose tolerance test; format: functional; conditions: C57BL/6, Plasma
# Mus musculus [32] = assay: Inhibition of DPP4 activity in C57BL/6 mouse at 1 mg/kg, po administered as single dose 30 mins before orally glucose challenge and measured 20 mins post oral glucose challenge by luminescence assay; format: functional
# [33] = Permeability from apical to basolateral side in human Caco2 cells; format: ADME, cell-based; conditions: Caco-2, read-out: permeability
# [34] = Half life in rat at 10 mg/kg, po; format: ADME, organism-based; set-up: dose 10 mg/kg, route oral; conditions: in vivo
# [35] = Half life in dog at 5 mg/kg, po; format: ADME, organism-based, Canis lupus familiaris; set-up: dose 5 mg/kg, route oral; conditions: in vivo
# Mus musculus [36] = assay: Antidiabetic activity in C57BL/6 mouse assessed as reduction in plasma glucose AUC (0 to 120 mins) at 0.3 mg/kg, po administered as single dose 30 mins before orally glucose challenge by oral glucose tolerance test; format: functional; conditions: C57BL/6, Plasma
# [37] = Protein binding in dog; format: ADME, organism-based, Canis lupus familiaris; conditions: in vivo, read-out: PB (converted)
# [38] = Plasma concentration in C57BL/6 mouse at 0.1 mg/kg, po administered as single dose 30 mins before orally glucose challenge and measured 20 mins post oral glucose challenge; format: ADME, organism-based; set-up: dose 0.1 mg/kg, route oral
# [39] = Oral bioavailability in monkey at 10 mg/kg; format: ADME, organism-based, Macaca mulatta; conditions: rhesus monkey, in vivo
# [40] = Half life in monkey at 10 mg/kg, po; format: ADME, organism-based, Macaca mulatta; set-up: dose 10 mg/kg, route oral; conditions: rhesus monkey, in vivo
# Mus musculus [41] = assay: Antidiabetic activity in C57BL/6 mouse assessed as reduction in plasma glucose AUC (0 to 120 mins) at 1 mg/kg, po administered as single dose 30 mins before orally glucose challenge by oral glucose tolerance test; format: functional; conditions: C57BL/6, Plasma
# [42] = Cmax in rat at 10 mg/kg, po; format: ADME, organism-based; set-up: dose 10 mg/kg, route oral; conditions: in vivo
# Salmonella typhimurium = assay: Genotoxicity in Salmonella typhimurium at 5000 ug/plate by Ames test; format: toxicity, organism-based; conditions: salmonella enterica subsp. enterica serovar typhimurium
# [43] = AUClast in monkey at 10 mg/kg, po; format: ADME, organism-based, Macaca mulatta; set-up: dose 10 mg/kg, route oral, time 0 - last; conditions: rhesus monkey, plasma
# [44] = Permeability from basolateral to apical side in human Caco2 cells; format: ADME, cell-based; conditions: Caco-2, read-out: permeability
# [45] = Oral bioavailability in rat at 10 mg/kg; format: ADME, organism-based; conditions: in vivo
# [46] = Toxicity in rat after 28 days; format: organism-based; conditions: in vivo
# [47] = Half life in rat at 10 mg/kg, iv; format: ADME, organism-based; set-up: dose 10 mg/kg, route intravenous; conditions: in vivo
# Mus musculus [48] = species on record: Mus musculus; assay: animal or person; conditions: C57BL/6, Plasma, po, read-out: MED
# [49] = target: Voltage-gated inwardly rectifying potassium channel KCNH2 (Homo sapiens, UniProt Q12809); assay: Inhibition of human ERG
# Sequence of Voltage-gated inwardly rectifying potassium channel KCNH2 (Q12809 whole entry): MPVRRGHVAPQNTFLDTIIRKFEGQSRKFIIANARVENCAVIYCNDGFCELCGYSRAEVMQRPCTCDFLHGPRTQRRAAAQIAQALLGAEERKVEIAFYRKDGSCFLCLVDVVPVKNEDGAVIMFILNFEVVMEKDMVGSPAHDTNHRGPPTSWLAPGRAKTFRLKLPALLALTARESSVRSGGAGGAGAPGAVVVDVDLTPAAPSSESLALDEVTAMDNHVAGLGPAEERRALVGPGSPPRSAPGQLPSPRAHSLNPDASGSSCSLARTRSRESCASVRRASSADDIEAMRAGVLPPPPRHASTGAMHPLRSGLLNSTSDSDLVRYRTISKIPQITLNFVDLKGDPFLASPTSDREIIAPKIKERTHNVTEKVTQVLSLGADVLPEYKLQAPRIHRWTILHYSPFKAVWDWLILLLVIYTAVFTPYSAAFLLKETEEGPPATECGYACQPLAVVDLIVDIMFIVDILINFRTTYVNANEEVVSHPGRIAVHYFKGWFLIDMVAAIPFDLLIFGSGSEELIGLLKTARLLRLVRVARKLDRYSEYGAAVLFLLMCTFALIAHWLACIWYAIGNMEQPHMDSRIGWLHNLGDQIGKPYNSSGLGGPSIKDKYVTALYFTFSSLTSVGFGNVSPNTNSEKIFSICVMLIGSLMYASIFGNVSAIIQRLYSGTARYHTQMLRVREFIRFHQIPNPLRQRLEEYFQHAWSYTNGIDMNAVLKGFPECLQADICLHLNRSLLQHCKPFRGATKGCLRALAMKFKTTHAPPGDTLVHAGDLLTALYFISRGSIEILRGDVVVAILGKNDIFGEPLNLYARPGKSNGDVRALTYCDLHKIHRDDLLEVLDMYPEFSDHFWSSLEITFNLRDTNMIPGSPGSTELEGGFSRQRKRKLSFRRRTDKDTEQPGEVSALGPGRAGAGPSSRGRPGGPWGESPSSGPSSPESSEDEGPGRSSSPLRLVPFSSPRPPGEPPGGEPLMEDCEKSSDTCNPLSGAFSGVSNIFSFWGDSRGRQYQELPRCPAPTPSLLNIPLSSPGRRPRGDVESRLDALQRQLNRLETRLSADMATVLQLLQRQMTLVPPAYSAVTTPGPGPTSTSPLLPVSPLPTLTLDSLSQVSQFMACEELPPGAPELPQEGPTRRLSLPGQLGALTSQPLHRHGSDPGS
# Cytochrome P450 2D6 = Cytochrome P450 2D6 (Homo sapiens, UniProt P10635); assay: Inhibition of CYP2D6 (unknown origin); format: ADME
# Sequence of Cytochrome P450 2D6 (P10635 whole entry): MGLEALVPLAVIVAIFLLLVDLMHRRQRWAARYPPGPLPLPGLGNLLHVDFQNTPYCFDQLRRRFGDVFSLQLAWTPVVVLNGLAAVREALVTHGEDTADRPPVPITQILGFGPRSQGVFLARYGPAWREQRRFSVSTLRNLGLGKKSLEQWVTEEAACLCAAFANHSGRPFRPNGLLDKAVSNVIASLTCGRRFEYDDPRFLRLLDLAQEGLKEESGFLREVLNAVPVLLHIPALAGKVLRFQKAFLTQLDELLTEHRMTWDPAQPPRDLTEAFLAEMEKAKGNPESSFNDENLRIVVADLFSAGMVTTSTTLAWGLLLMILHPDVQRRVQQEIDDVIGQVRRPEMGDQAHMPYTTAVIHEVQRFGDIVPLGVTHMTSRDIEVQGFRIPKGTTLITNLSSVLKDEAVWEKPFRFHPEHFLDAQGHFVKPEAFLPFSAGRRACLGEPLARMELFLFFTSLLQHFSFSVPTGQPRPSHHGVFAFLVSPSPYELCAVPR
# Sequence of Dipeptidyl peptidase 9 (Q86TI2 whole entry): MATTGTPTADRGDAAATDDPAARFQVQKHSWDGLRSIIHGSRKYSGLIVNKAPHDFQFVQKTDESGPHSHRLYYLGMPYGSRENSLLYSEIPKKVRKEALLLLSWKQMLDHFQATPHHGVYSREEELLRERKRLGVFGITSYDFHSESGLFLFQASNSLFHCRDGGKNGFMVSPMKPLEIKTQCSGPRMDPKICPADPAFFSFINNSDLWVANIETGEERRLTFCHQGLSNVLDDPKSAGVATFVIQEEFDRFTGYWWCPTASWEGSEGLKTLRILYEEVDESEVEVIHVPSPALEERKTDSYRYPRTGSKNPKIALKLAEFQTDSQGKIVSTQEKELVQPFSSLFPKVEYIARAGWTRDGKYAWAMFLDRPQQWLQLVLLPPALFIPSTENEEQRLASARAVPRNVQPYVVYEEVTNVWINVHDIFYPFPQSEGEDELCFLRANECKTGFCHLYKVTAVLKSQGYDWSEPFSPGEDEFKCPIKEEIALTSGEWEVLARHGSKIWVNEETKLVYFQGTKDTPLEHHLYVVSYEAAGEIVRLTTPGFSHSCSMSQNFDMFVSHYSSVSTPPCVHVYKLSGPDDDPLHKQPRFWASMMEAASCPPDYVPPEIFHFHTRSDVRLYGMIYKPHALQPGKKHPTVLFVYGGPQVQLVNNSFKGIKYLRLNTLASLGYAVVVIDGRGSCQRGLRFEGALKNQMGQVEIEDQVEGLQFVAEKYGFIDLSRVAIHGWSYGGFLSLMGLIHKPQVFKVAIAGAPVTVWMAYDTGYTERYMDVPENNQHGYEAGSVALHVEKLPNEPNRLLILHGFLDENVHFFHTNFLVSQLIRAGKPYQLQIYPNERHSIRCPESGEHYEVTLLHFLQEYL
smiles,measurement,setting,value
Cn1c(=O)n(Cc2ccccc2C#N)c2c(NC3CCNCC3)ccnc21,IC50,Dipeptidyl peptidase 9,> 100 µM
same,IC50,Dipeptidyl peptidase 8,> 100 µM
Cn1c(=O)n(Cc2ccccc2C#N)c2c(N3CCCNCC3)ccnc21,IC50,Dipeptidyl peptidase 9,> 100 µM
same,IC50,Dipeptidyl peptidase 8,> 100 µM
CC(=O)N[C@@H]1CCCN(c2ccnc3c2n(Cc2ccccc2C#N)c(=O)n3C)C1,IC50,Dipeptidyl peptidase 9,> 100 µM
same,IC50,Dipeptidyl peptidase 8,> 100 µM
Cn1c(=O)n(Cc2ccccc2C#N)c2c(N3CCC[C@H](N)C3)ccnc21,IC50,Dipeptidyl peptidase 9,> 100 µM
same,IC50,Dipeptidyl peptidase 8,> 100 µM
COc1cc(N2CCC[C@@H](N)C2)c2c(n1)n(C)c(=O)n2Cc1ccccc1C#N,IC50,Dipeptidyl peptidase 9,> 100 µM
same,IC50,Dipeptidyl peptidase 8,> 100 µM
Cc1cc(N2CCC[C@@H](N)C2)c2c(n1)n(C)c(=O)n2Cc1ccccc1C#N,Cmax,[1],3030 ng/mL
same,solubility,[2],551 mg/mL
same,Activity,Mus musculus [3],11.4 mM
same,Cmax,[4],1360 ng/mL
same,solubility,[5],560 mg/mL
same,clearance,[6],11.2 mL/min/kg
same,solubility,[7],560 mg/mL
same,Vd,[8],2.46 L/kg
same,bioavailability,[9],89%
same,concentration at 50 min,[10],36.1 ng/mL
same,half-life,[11],221 min
same,AUC(0-t),[12],3630 ng·h/mL
same,concentration at 20 min,[13],129 ng/mL
same,Activity,Mus musculus [14],14.1 mM
same,Activity,Mus musculus [15],5.7 pM
same,INH,Cytochrome P450 2C19,> 30 µM
same,Activity,Canis familiaris,Non-toxic
same,clearance,[16],35.3 mL/min/kg
same,Vd,[17],2.44 L/kg
same,INH,Cytochrome P450 2C9,> 30 µM
same,INH,Cytochrome P450 3A4,> 30 µM
same,half-life,[18],67.2 min
same,fraction unbound,[19],0.58
same,Activity,Mus musculus [20],12.4 mM
same,concentration at 20 min,[21],10.3 ng/mL
same,Activity,Mus musculus [22],5.7 pM
same,inhibition in vivo at 3 mg/kg,Mus musculus [23],65%
same,Activity,Mus musculus [24],6.9 pM
same,inhibition in vivo at 0.1 mg/kg,Mus musculus [25],23.8%
same,fraction unbound,[26],0.38
same,inhibition in vivo at 3 mg/kg,Mus musculus [27],82.1%
same,Activity,Mus musculus [28],Non-toxic
same,inhibition in vivo at 0.3 mg/kg,Mus musculus [29],43.8%
same,AUC(0-t),[30],3980 ng·h/mL
same,inhibition in vivo at 0.1 mg/kg,Mus musculus [31],3%
same,inhibition in vivo at 1 mg/kg,Mus musculus [32],71.2%
same,Papp A→B,[33],9 ×10⁻⁶ cm/s
same,half-life,[34],144 min
same,half-life,[35],78 min
same,inhibition in vivo at 0.3 mg/kg,Mus musculus [36],40%
same,fraction unbound,[37],0.26
same,concentration at 20 min,[38],3.9 ng/mL
same,bioavailability,[39],86%
same,half-life,[40],288 min
same,inhibition in vivo at 1 mg/kg,Mus musculus [41],57%
same,Cmax,[42],1250 ng/mL
same,Activity,Salmonella typhimurium,Non-toxic
same,AUC(0-t),[43],12900 ng·h/mL
same,Papp B→A,[44],28 ×10⁻⁶ cm/s
same,bioavailability,[45],97%
same,NOAEL at 672 h,[46],150 mg/kg
same,half-life,[47],110 min
same,minimal effective dose,Mus musculus [48],0.3 mg/kg
same,INH,[49],> 25 µM
same,INH,Cytochrome P450 2D6,> 30 µM
